We go through 2 compounds from patent EP4768484A1, “HETEROCYCLIC FUSED RING COMPOUND, AND COMPOSITION AND USE THEREOF” (Shenzhen TargetRx, Inc., priority 2023, dated 2025).

Format in all cases: cell-based
One test deals with K562 cells. The test is described as follows: Cell growth inhibitory activity assay (CellTiter-Glo), K562 cells. The note with it: Homo sapiens, 72 h, CTG cell viability. Put shortly: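 Growth inhibition of human K562 cells, sourced from Nanjing Kebai (CBP60529), was assessed with Promega's CellTiter-Glo kit, which measures viability through ATP quantification. Log-phase cells went into the inner wells of 96-well plates, with PBS in edge wells, incubated overnight at 37 °C and 5% CO2, then exposed to serially diluted compound for 72 h.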

The next test addresses T1, Ba/F3 BCR-ABL1 WT (Homo sapiens, UniProt P00519+P11274).
T1 construct: BCR (N-terminal fusion partner of the oncoprotein); expressed in transfected cells; host or cells: Ba/F3 (lentiviral transduction, monoclonal line)
Nature of the test: Cell growth inhibitory activity assay (CellTiter-Glo), Ba/F3 BCR-ABL1 WT cells. The note with it: 72 h, CTG cell viability. An outline of the steps: (§1)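 Ba/F3 lines stably transduced by lentivirus with WT or mutant BCR-ABL1, alongside untransduced parental Ba/F3, were seeded and incubated overnight at 37 °C, 5% CO2, then exposed to serially diluted compound for 72 h. Viability was read as ATP by CellTiter-Glo luminescence against a day-of-dosing T0 plate; IC50 from four-parameter nonlinear fit.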

The next test concerns the target T2, Ba/F3 BCR-ABL1 T315I (Homo sapiens, UniProt P00519+P11274, T315I).
T2 construct: BCR (N-terminal fusion partner of the oncoprotein); expressed in transfected cells; host or cells: Ba/F3 (lentiviral transduction, monoclonal line)
The test is described as follows: Cell growth inhibitory activity assay (CellTiter-Glo), Ba/F3 BCR-ABL1 T315I cells. The note with it: 72 h, CTG cell viability. An outline of the steps:
as §1

For a further test, the target named is T3, Ba/F3 BCR-ABL1 T315M (Homo sapiens, UniProt P00519+P11274, T315M).
T3 construct: BCR (N-terminal fusion partner of the oncoprotein); expressed in transfected cells; host or cells: Ba/F3 (lentiviral transduction, monoclonal line)
The test is described as follows: Cell growth inhibitory activity assay (CellTiter-Glo), Ba/F3 BCR-ABL1 T315M cells. The note with it: 72 h, CTG cell viability. Put shortly: as §1

Another test has as its system Ba/F3 parental cells. The test is described as follows: Cell growth inhibitory activity assay (CellTiter-Glo), Ba/F3 parental cells. The note with it: Mus musculus, BaF3, 72 h, CTG cell viability, read-out: IC50 Ba/F3 BCR-ABL1 Parental. An outline of the steps:
as §1

Test [1] deals with T4, Ba/F3 BCR-ABL1 Y253H/E255K (Homo sapiens, UniProt P00519+P11274, E255K/Y253H).
T4 construct: BCR (N-terminal fusion partner of the oncoprotein); expressed in transfected cells; host or cells: Ba/F3 (lentiviral transduction, monoclonal line)
Nature of the test: Cell growth inhibitory activity assay (CellTiter-Glo), Ba/F3 BCR-ABL1 Y253H/E255K cells. The note with it: 72 h, CTG cell viability. Put shortly: as §1

For test [2], the target named is T5, Ba/F3 BCR-ABL1 E255V/T315I (Homo sapiens, UniProt P00519+P11274, E255V/T315I).
T5 construct: BCR (N-terminal fusion partner of the oncoprotein); expressed in transfected cells; host or cells: Ba/F3 (lentiviral transduction, monoclonal line)
Nature of the test: Cell growth inhibitory activity assay (CellTiter-Glo), Ba/F3 BCR-ABL1 E255V/T315I cells. The note with it: 72 h, CTG cell viability. Put shortly:
as §1

In another test the target is T6, Ba/F3 BCR-ABL1 A424T (Homo sapiens, UniProt P00519+P11274, A424T).
T6 construct: BCR (N-terminal fusion partner of the oncoprotein); expressed in transfected cells; host or cells: Ba/F3 (lentiviral transduction, monoclonal line)
Nature of the test: Cell growth inhibitory activity assay (CellTiter-Glo), Ba/F3 BCR-ABL1 A424T cells. The note with it: 72 h, CTG cell viability. Put shortly:
as §1

A further test deals with T7, Ba/F3 BCR-ABL1 A337V (Homo sapiens, UniProt P00519+P11274, A337V).
T7 construct: BCR (N-terminal fusion partner of the oncoprotein); expressed in transfected cells; host or cells: Ba/F3 (lentiviral transduction, monoclonal line)
The test is described as follows: Cell growth inhibitory activity assay (CellTiter-Glo), Ba/F3 BCR-ABL1 A337V cells. The note with it: 72 h, CTG cell viability. An outline of the steps:
as §1

The target of the next test is T8, Ba/F3 BCR-ABL1 P465S (Homo sapiens, UniProt P00519+P11274, P465S).
T8 construct: BCR (N-terminal fusion partner of the oncoprotein); expressed in transfected cells; host or cells: Ba/F3 (lentiviral transduction, monoclonal line)
Nature of the test: Cell growth inhibitory activity assay (CellTiter-Glo), Ba/F3 BCR-ABL1 P465S cells. The note with it: 72 h, CTG cell viability. Put shortly: as §1

A further test concerns the target T9, Ba/F3 BCR-ABL1 V468F (Homo sapiens, UniProt P00519+P11274, V468F).
T9 construct: BCR (N-terminal fusion partner of the oncoprotein); expressed in transfected cells; host or cells: Ba/F3 (lentiviral transduction, monoclonal line)
Nature of the test: Cell growth inhibitory activity assay (CellTiter-Glo), Ba/F3 BCR-ABL1 V468F cells. The note with it: 72 h, CTG cell viability. An outline of the steps: as §1

The next test deals with T10, Ba/F3 BCR-ABL1 I502L (Homo sapiens, UniProt P00519+P11274, I502L).
T10 construct: BCR (N-terminal fusion partner of the oncoprotein); expressed in transfected cells; host or cells: Ba/F3 (lentiviral transduction, monoclonal line)
The test is described as follows: Cell growth inhibitory activity assay (CellTiter-Glo), Ba/F3 BCR-ABL1 I502L cells. The note with it: 72 h, CTG cell viability. Put shortly: as §1

Molecules are shown by their SMILES. Where only a bound is given, the exact number is not on record here.

With `Cc1cc(C)nc(-n2cc3c(n2)-c2cc(-c4cc(C(=O)Nc5ccc(OC(F)(F)Cl)cc5)cc5nc6n(c45)[C@H](C)COC6)cnc2C3)n1` [T-76, (R)-N-(4-(chlorodifluoromethoxy)phenyl)-6-(2-(4,6-dimethylpyrimidin-2-yl)-2,4-dihydropyrazolo[3',4':3,4]cyclopenta[1,2-b]pyridin-7-yl)-4-methyl-3,4-dihydro-1H-benzo[4,5]imidazo[2,1-c][1,4]oxazine-8-carboxamide], the IC50 was at most 0.005 µM with K562 cells; at most 0.005 µM at Ba/F3 BCR-ABL1 WT; at most 0.005 µM against Ba/F3 BCR-ABL1 T315I; at most 0.005 µM against Ba/F3 BCR-ABL1 T315M; above 1 µM in the test with Ba/F3 parental cells; at most 0.005 µM in [1]. Also, the IC50 in test [2] was at most 0.005 µM; against Ba/F3 BCR-ABL1 A424T, at most 0.005 µM; at Ba/F3 BCR-ABL1 A337V, 0.05 to 1 µM; against Ba/F3 BCR-ABL1 P465S, 0.05 to 1 µM; on Ba/F3 BCR-ABL1 V468F it was 0.05 to 1 µM; on Ba/F3 BCR-ABL1 I502L it was 0.005 to 0.05 µM.
Consider `C[C@@H]1COCc2nc3cc(C(=O)Nc4ccc(OC(F)(F)Cl)cc4)cc(-c4cnccn4)c3n21` [T-115, (R)-N-(4-(chlorodifluoromethoxy)phenyl)-4-methyl-6-(pyrazin-2-yl)-3,4-dihydro-1H-benzo[4,5]imidazo[2,1-c][1,4]oxazine-8-carboxamide], for which the IC50 in the test on K562 cells was at most 0.005 µM; against Ba/F3 BCR-ABL1 WT, at most 0.005 µM; against Ba/F3 BCR-ABL1 T315I, 0.005 to 0.05 µM; at Ba/F3 BCR-ABL1 T315M it was above 1 µM; in the test with Ba/F3 parental cells, above 1 µM; in [1] it was 0.005 to 0.05 µM. The IC50 is 0.005 to 0.05 µM in test [2]; 0.05 to 1 µM on Ba/F3 BCR-ABL1 A424T; 0.05 to 1 µM against Ba/F3 BCR-ABL1 A337V; 0.05 to 1 µM against Ba/F3 BCR-ABL1 P465S; 0.05 to 1 µM against Ba/F3 BCR-ABL1 V468F; 0.05 to 1 µM at Ba/F3 BCR-ABL1 I502L.
